Test results: ChEMBL document CHEMBL1201862, “PubChem BioAssay data set” (2004)
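Method: 48-hour compound exposure of cells in 96-well plates, five concentrations, linear interpolation of endpoints. The concentration for 50% growth inhibition is given as GI50.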 Active and inactive are the calls of the source. Rule as the data show it: active = GI50 up to about 1.1 µM and inactive = higher.

Columns and labels:
Assay in all cases: growth of human tumour cells (NCI), 48 h
786-0 = tested on: 786-0
A498 = tested on: A498
A549 = tested on: A549
BT-549 = tested on: BT-549
CAKI-1 = tested on: CAKI-1
CCRF-CEM = tested on: CCRF-CEM
COLO 205 = tested on: COLO 205
DU-145 = tested on: DU-145
EKVX = tested on: EKVX
HCC 2998 = tested on: HCC 2998
HCT-15 = tested on: HCT-15
HL-60 = tested on: HL-60
HOP-62 = tested on: HOP-62
HOP-92 = tested on: HOP-92
Hs-578T = tested on: Hs-578T
IGROV-1 = tested on: IGROV-1
K562 = tested on: K562
KM12 = tested on: KM12
LOX IMVI = tested on: LOX IMVI
M14 = tested on: M14
MCF7 = tested on: MCF7
MDA-MB-231 = tested on: MDA-MB-231
MDA-N = tested on: MDA-N
MOLT-4 = tested on: MOLT-4
Malme-3M = tested on: Malme-3M
NCI-H226 = tested on: NCI-H226
NCI-H23 = tested on: NCI-H23
NCI-H460 = tested on: NCI-H460
NCI/ADR-RES = tested on: NCI/ADR-RES
OVCAR-4 = tested on: OVCAR-4
OVCAR-8 = tested on: OVCAR-8
RPMI-8226 = tested on: RPMI-8226
SF-268 = tested on: SF-268
SF-539 = tested on: SF-539
SK-MEL-28 = tested on: SK-MEL-28
SK-MEL-5 = tested on: SK-MEL-5
SK-OV-3 = tested on: SK-OV-3
SN12C = tested on: SN12C
SNB-75 = tested on: SNB-75
SR = tested on: SR
SW-620 = tested on: SW-620
T47D = tested on: T47D
TK-10 = tested on: TK-10
U-251 = tested on: U-251
UACC-257 = tested on: UACC-257
UACC-62 = tested on: UACC-62
UO-31 = tested on: UO-31
ACHN = tested on: ACHN
HCT-116 = tested on: HCT-116
HT-29 = tested on: HT-29
NCI-H522 = tested on: NCI-H522
OVCAR-3 = tested on: OVCAR-3
OVCAR-5 = tested on: OVCAR-5
PC-3 = tested on: PC-3
SF-295 = tested on: SF-295
SK-MEL-2 = tested on: SK-MEL-2
SNB-19 = tested on: SNB-19
MDA-MB-435 = tested on: MDA-MB-435
RXF 393 = tested on: RXF 393

Question: How did the GI50 (786-0) turn out when `SC1=NNC2(C(Cl)=N1)c1ccccc1-c1ccccc12` was run?
Answer: > 10 µM (inactive)

Question: What about the GI50 (A498) of the same compound?
Answer: > 10 µM (inactive)

Question: And the GI50 (A549)?
Answer: > 10 µM (inactive)

Question: What about the GI50 (BT-549) of the same compound?
Answer: > 10 µM (inactive)

Question: What about the GI50 (CAKI-1) of the same compound?
Answer: > 10 µM (inactive)

Question: And the GI50 (CCRF-CEM)?
Answer: > 10 µM (inactive)

Question: And the GI50 (COLO 205)?
Answer: > 10 µM (inactive)

Question: What about the GI50 (DU-145) of the same compound?
Answer: > 10 µM (inactive)

Question: And the GI50 (EKVX)?
Answer: > 10 µM (inactive)

Question: And the GI50 (HCC 2998)?
Answer: > 10 µM (inactive)

Question: What about the GI50 (HCT-15) of the same compound?
Answer: > 10 µM

Question: And the GI50 (HL-60)?
Answer: > 10 µM (inactive)

Question: And the GI50 (HOP-62)?
Answer: > 10 µM (inactive)

Question: And the GI50 (HOP-92)?
Answer: > 10 µM (inactive)

Question: And the GI50 (Hs-578T)?
Answer: > 10 µM (inactive)

Question: What about the GI50 (IGROV-1) of the same compound?
Answer: > 10 µM (inactive)

Question: What about the GI50 (K562) of the same compound?
Answer: > 10 µM (inactive)

Question: What about the GI50 (KM12) of the same compound?
Answer: > 10 µM (inactive)

Question: What about the GI50 (LOX IMVI) of the same compound?
Answer: > 10 µM (inactive)

Question: And the GI50 (M14)?
Answer: > 10 µM (inactive)

Question: What about the GI50 (MCF7) of the same compound?
Answer: > 10 µM (inactive)

Question: And the GI50 (MDA-MB-231)?
Answer: > 10 µM (inactive)

Question: What about the GI50 (MDA-N) of the same compound?
Answer: > 10 µM (inactive)

Question: And the GI50 (MOLT-4)?
Answer: > 10 µM (inactive)

Question: What about the GI50 (Malme-3M) of the same compound?
Answer: > 10 µM (inactive)

Question: What about the GI50 (NCI-H226) of the same compound?
Answer: > 10 µM (inactive)

Question: What about the GI50 (NCI-H23) of the same compound?
Answer: > 10 µM (inactive)

Question: And the GI50 (NCI-H460)?
Answer: > 10 µM (inactive)

Question: What about the GI50 (NCI/ADR-RES) of the same compound?
Answer: > 10 µM (inactive)

Question: What about the GI50 (OVCAR-4) of the same compound?
Answer: > 10 µM (inactive)

Question: What about the GI50 (OVCAR-8) of the same compound?
Answer: > 10 µM (inactive)

Question: And the GI50 (RPMI-8226)?
Answer: > 10 µM (inactive)

Question: And the GI50 (SF-268)?
Answer: > 10 µM (inactive)

Question: What about the GI50 (SF-539) of the same compound?
Answer: > 10 µM (inactive)

Question: And the GI50 (SK-MEL-28)?
Answer: > 10 µM (inactive)

Question: And the GI50 (SK-MEL-5)?
Answer: > 10 µM (inactive)

Question: What about the GI50 (SK-OV-3) of the same compound?
Answer: > 10 µM (inactive)

Question: What about the GI50 (SN12C) of the same compound?
Answer: > 10 µM (inactive)

Question: And the GI50 (SNB-75)?
Answer: > 10 µM (inactive)

Question: What about the GI50 (SR) of the same compound?
Answer: > 10 µM (inactive)

Question: What about the GI50 (SW-620) of the same compound?
Answer: > 10 µM (inactive)

Question: And the GI50 (T47D)?
Answer: > 10 µM (inactive)

Question: And the GI50 (TK-10)?
Answer: > 10 µM (inactive)

Question: What about the GI50 (U-251) of the same compound?
Answer: > 10 µM (inactive)

Question: What about the GI50 (UACC-257) of the same compound?
Answer: > 10 µM (inactive)

Question: And the GI50 (UACC-62)?
Answer: > 10 µM (inactive)

Question: What about the GI50 (UO-31) of the same compound?
Answer: 6.44 µM (inactive)

Question: Which results are given for `COC(=O)Nc1nc(=O)c2cc(OC)c(OC)cc2[nH]1`?
Answer: GI50 (786-0): 45.5 µM (inactive); GI50 (A498): 71.9 µM (inactive); GI50 (A549): > 100 µM (inactive); GI50 (ACHN): > 100 µM (inactive); GI50 (BT-549): 15.3 µM (inactive); GI50 (CAKI-1): 20.2 µM (inactive); GI50 (CCRF-CEM): 6.04 µM (inactive); GI50 (COLO 205): 4.4 µM (inactive); GI50 (DU-145): 32.7 µM (inactive); GI50 (EKVX): > 100 µM (inactive); GI50 (HCC 2998): 71.3 µM (inactive); GI50 (HCT-116): 5.2 µM (inactive); GI50 (HCT-15): 17.5 µM; GI50 (HL-60): 7.46 µM (inactive); GI50 (HOP-62): 44.6 µM (inactive); GI50 (HT-29): 6.68 µM (inactive); GI50 (Hs-578T): 66.1 µM (inactive); GI50 (IGROV-1): 15.2 µM (inactive); GI50 (K562): 3.59 µM (inactive); GI50 (KM12): 5.31 µM (inactive); GI50 (M14): > 100 µM (inactive); GI50 (MCF7): 6.15 µM (inactive); GI50 (MDA-MB-231): 81.3 µM (inactive); GI50 (MDA-N): 2.31 µM (inactive); GI50 (MOLT-4): 6.84 µM (inactive); GI50 (Malme-3M): 5.31 µM (inactive); GI50 (NCI-H226): 37.6 µM (inactive); GI50 (NCI-H23): 50 µM (inactive); GI50 (NCI-H460): 9.33 µM (inactive); GI50 (NCI-H522): 2.37 µM (inactive); GI50 (NCI/ADR-RES): 5.47 µM (inactive); GI50 (OVCAR-3): > 100 µM (inactive); GI50 (OVCAR-4): > 100 µM (inactive); GI50 (OVCAR-5): > 100 µM (inactive); GI50 (OVCAR-8): 47.6 µM (inactive); GI50 (PC-3): 3.29 µM (inactive); GI50 (SF-268): > 100 µM (inactive); GI50 (SF-295): 4.66 µM (inactive); GI50 (SF-539): 24.2 µM (inactive); GI50 (SK-MEL-28): 63 µM (inactive); GI50 (SK-MEL-2): > 100 µM (inactive); GI50 (SK-MEL-5): 6.35 µM (inactive); GI50 (SK-OV-3): 42.1 µM (inactive); GI50 (SN12C): 64.9 µM (inactive); GI50 (SNB-19): 36.4 µM (inactive); GI50 (SNB-75): 11.6 µM (inactive); GI50 (SR): > 100 µM (inactive); GI50 (SW-620): 3.85 µM (inactive); GI50 (T47D): 36 µM (inactive); GI50 (TK-10): > 100 µM (inactive); GI50 (U-251): 61.5 µM (inactive); GI50 (UACC-257): > 100 µM (inactive); GI50 (UACC-62): 6.56 µM (inactive); GI50 (UO-31): 49.4 µM (inactive)

Question: Which results are given for `c1ccc2cc3c(cc2c1)nc1ccccn13`?
Answer: GI50 (786-0): > 100 µM (inactive); GI50 (A549): > 100 µM (inactive); GI50 (ACHN): > 100 µM (inactive); GI50 (BT-549): > 100 µM (inactive); GI50 (CCRF-CEM): > 100 µM (inactive); GI50 (COLO 205): > 100 µM (inactive); GI50 (DU-145): > 100 µM (inactive); GI50 (EKVX): > 100 µM (inactive); GI50 (HCC 2998): > 100 µM (inactive); GI50 (HCT-116): 96.2 µM (inactive); GI50 (HCT-15): > 100 µM; GI50 (HL-60): > 100 µM (inactive); GI50 (HOP-62): > 100 µM (inactive); GI50 (HOP-92): > 100 µM (inactive); GI50 (Hs-578T): 21 µM (inactive); GI50 (IGROV-1): > 100 µM (inactive); GI50 (K562): > 100 µM (inactive); GI50 (KM12): > 100 µM (inactive); GI50 (M14): > 100 µM (inactive); GI50 (MCF7): 28.2 µM (inactive); GI50 (MDA-MB-435): > 100 µM (inactive); GI50 (MDA-N): > 100 µM (inactive); GI50 (MOLT-4): > 100 µM (inactive); GI50 (Malme-3M): > 100 µM (inactive); GI50 (NCI-H226): > 100 µM (inactive); GI50 (NCI-H23): > 100 µM (inactive); GI50 (NCI/ADR-RES): > 100 µM (inactive); GI50 (OVCAR-3): > 100 µM (inactive); GI50 (OVCAR-5): > 100 µM (inactive); GI50 (OVCAR-8): > 100 µM (inactive); GI50 (PC-3): > 100 µM (inactive); GI50 (RPMI-8226): > 100 µM (inactive); GI50 (RXF 393): > 100 µM (inactive); GI50 (SF-268): > 100 µM (inactive); GI50 (SF-295): > 100 µM (inactive); GI50 (SF-539): > 100 µM (inactive); GI50 (SK-MEL-28): > 100 µM (inactive); GI50 (SK-MEL-5): > 100 µM (inactive); GI50 (SK-OV-3): 77.3 µM (inactive); GI50 (SN12C): > 100 µM (inactive); GI50 (SNB-19): > 100 µM (inactive); GI50 (SNB-75): > 100 µM (inactive); GI50 (SR): > 100 µM (inactive); GI50 (SW-620): > 100 µM (inactive); GI50 (T47D): > 100 µM (inactive); GI50 (TK-10): > 100 µM (inactive); GI50 (U-251): > 100 µM (inactive); GI50 (UACC-257): > 100 µM (inactive); GI50 (UACC-62): > 100 µM (inactive); GI50 (UO-31): > 100 µM (inactive)
